Experimental data as given in patent US20160168126A1, “CHEMICAL COMPOUNDS” (SYNGENTA LIMITED, priority 2013, published 2016).

Test system: a variety of test species
Test: Post-emergence herbicidal activity (glasshouse, sprayed 8 days after sowing, evaluated after 13 days)
Type: in vivo
Conditions: scale 0-5
Experimental: Seeds of a variety of test species were sown in standard soil in pots. After 8 days cultivation (post-emergence) under controlled conditions in a glasshouse (at 24/16° C., day/night; 14 hours light; 65% humidity), the plants were sprayed with an aqueous spray solution derived from the formulation of the technical active ingredient in acetone/water (50:50) solution containing 0.5% Tween 20 (polyoxyethelyene sorbitan monolaurate, CAS RN 9005-64-5). The test plants were then grown in a glasshouse under controlled conditions (at 24/16° C., day/night; 14 hours light; 65% humidity) and watered twice daily. After 13 days, the test was evaluated (5=total damage to plant; 0=no damage to plant).

Structure (SMILES) | Post-emergence herbicidal damage score, ABUTH (Abutilon theophrasti) (1000 g/ha) | Post-emergence herbicidal damage score, ALOMY (Alopecurus myosuroides) (1000 g/ha) | Post-emergence herbicidal damage score, AMARE (Amaranthus retroflexus) (1000 g/ha) | Post-emergence herbicidal damage score, ECHCG (Echinochloa crus-galli) (1000 g/ha) | Post-emergence herbicidal damage score, SETFA (Setaria faberi) (1000 g/ha) | Post-emergence herbicidal damage score, ZEAMX (Zea mays) (1000 g/ha) | Post-emergence herbicidal damage score, ABUTH (Abutilon theophrasti) (250 g/ha) | Post-emergence herbicidal damage score, ALOMY (Alopecurus myosuroides) (250 g/ha) | Post-emergence herbicidal damage score, AMARE (Amaranthus retroflexus) (250 g/ha) | Post-emergence herbicidal damage score, ECHCG (Echinochloa crus-galli) (250 g/ha) | Post-emergence herbicidal damage score, SETFA (Setaria faberi) (250 g/ha) | Post-emergence herbicidal damage score, ZEAMX (Zea mays) (250 g/ha)
CCC(C)(OC)c1cc(N2C(=O)C(C)=C(Cl)C2O)nn1C (mixture of isomers) [Compound B13] | 5 | 3 | 3 | 2 | 4 | 0 | – | – | – | – | – | –
CCOC(C)(CC)c1cc(N2C(=O)C(C)=C(Cl)C2O)nn1C (mixture of isomers) [Compound B14] | 5 | 3 | 4 | 4 | 4 | 1 | – | – | – | – | – | –
CCC(C)c1cc(N2C(=O)C(C)=C(Cl)C2O)nn1C (mixture of isomers) [Compound B15] | 5 | 4 | 5 | 5 | 5 | 2 | – | – | – | – | – | –
CCOC(c1cc(N2C(=O)C(C)=C(Cl)C2O)nn1C)C(C)(C)C (mixture of isomers) [Compound B16] | 0 | 0 | 0 | 0 | 0 | 0 | – | – | – | – | – | –
CC1=C(Cl)C(O)N(c2cc(C(F)C(C)(C)C)n(C)n2)C1=O (mixture of isomers) [Compound B19] | 4 | 2 | 4 | 3 | 4 | 0 | – | – | – | – | – | –
CC1=C(Cl)C(O)N(c2cc(C(C)C(F)(F)F)n(C)n2)C1=O (mixture of isomers) [Compound B21] | 4 | 5 | 5 | 5 | 5 | 1 | – | – | – | – | – | –
CC1=C(Cl)C(O)N(c2cc(C(C)(F)C(C)(C)C)n(C)n2)C1=O (mixture of isomers) [Compound B22] | 1 | 1 | 0 | 2 | 3 | 1 | – | – | – | – | – | –
CC1=C(Cl)C(O)N(c2cc3n(n2)CCC3C)C1=O (mixture of isomers) [Compound G1] | 5 | 4 | 5 | 5 | 4 | 2 | – | – | – | – | – | –
CCC1CCn2nc(N3C(=O)C(C)=C(Cl)C3O)cc21 (mixture of isomers) [Compound G3] | 5 | 4 | 5 | 4 | 5 | 2 | – | – | – | – | – | –
CCC1CCCn2nc(N3C(=O)C(C)=C(Cl)C3O)cc21 (mixture of isomers) [Compound G5] | 5 | 4 | 5 | 4 | 4 | 0 | – | – | – | – | – | –
CC1=C(Cl)C(O)N(c2cc(C(C)(C)C)[nH]n2)C1=O (stereo not drawn) [Compound A1] | – | – | – | – | – | – | 5 | 4 | 2 | 5 | 4 | 0
CC1=C(Cl)C(O)N(c2cc(C(F)(F)F)[nH]n2)C1=O (stereo not drawn) [Compound A2] | 4 | 1 | 1 | 2 | 2 | 0 | – | – | – | – | – | –
CC1=C(Cl)C(O)N(c2cc(C(C)C)[nH]n2)C1=O (stereo not drawn) [Compound A3] | – | – | – | – | – | – | 5 | 5 | 5 | 5 | 4 | 1
CC1=C(Cl)C(O)N(c2cc(C3CC3)[nH]n2)C1=O (stereo not drawn) [Compound A4] | 5 | 4 | 4 | 5 | 4 | 1 | – | – | – | – | – | –
CC1=C(Cl)C(O)N(c2cc(C)[nH]n2)C1=O (stereo not drawn) [Compound A5] | 5 | 4 | 3 | 2 | 4 | 2 | – | – | – | – | – | –
CC1=C(Cl)C(O)N(c2cc(C(F)(F)C(F)(F)F)[nH]n2)C1=O (stereo not drawn) [Compound A6] | 2 | 1 | 3 | 2 | 2 | 1 | – | – | – | – | – | –
CCC(C)(CC)c1cc(N2C(=O)C(C)=C(Cl)C2O)n[nH]1 (stereo not drawn) [Compound A7] | 5 | 3 | 5 | 5 | 5 | 1 | – | – | – | – | – | –
CC1=C(Cl)C(O)N(c2cc(C)n(C)n2)C1=O (stereo not drawn) [Compound B1] | 5 | 2 | 5 | 2 | 1 | 1 | – | – | – | – | – | –
CC1=C(Cl)C(O)N(c2cc(C(C)(C)C)n(C)n2)C1=O (stereo not drawn) [Compound B2, 1-(5-tert-butyl-1-methyl-1H-pyrazol-3-yl)-4-chloro-5-hydroxy-3-methyl-1,5-dihydro-pyrrol-2-one] | 5 | 5 | 5 | 5 | 5 | 2 | – | – | – | – | – | –
